In patent publication US20040082667A1, “Hangover treatment” (priority 2002, published 2004):

Tests used:
alcohol induced hangover = experiment: focus group: treating an alcohol induced hangover; assay type: in vivo, human; settings: eight subjects (four male, four female); approximately 0.06 ounces powder in approximately 8 ounces of water or juice, oral, morning after an average of 9.5 alcoholic drinks; self-reported by each subject
Procedure: Each subject consumed an average of 9.5 alcoholic drinks in an average time period of 4.1 hours over the course of one evening. Each subject reported that they experienced the effects of an alcohol induced hangover the following morning. Upon rising, the subjects each ingested approximately 0.06 ounces of methylsulfonylmethane powder which had been mixed with approximately 8 ounces of water or juice. Each subject attested to the fact the effects of their alcohol induced hangover were relieved within less than one hour after ingesting the methylsulfonylmethane compound.

[1] = fraction of the toxicity of common table salt; general statement, no test described; cited from earlier work

For `CS(C)(=O)=O` [methylsulfonylmethane], the “time until effects of alcohol induced hangover were relieved after ingesting” value (alcohol induced hangover) is listed as “less than one” and the “toxicity level relative to common table salt” value [1] is listed as 1/7.
